Biological target: T1, human GPR139 (Homo sapiens, UniProt Q6DWJ6)
T1 construct: expressed in transfected cells; host or cells: CHO-TREx (Life Technologies) cells, expression induced with doxycycline
T1 sequence (Q6DWJ6 1-353): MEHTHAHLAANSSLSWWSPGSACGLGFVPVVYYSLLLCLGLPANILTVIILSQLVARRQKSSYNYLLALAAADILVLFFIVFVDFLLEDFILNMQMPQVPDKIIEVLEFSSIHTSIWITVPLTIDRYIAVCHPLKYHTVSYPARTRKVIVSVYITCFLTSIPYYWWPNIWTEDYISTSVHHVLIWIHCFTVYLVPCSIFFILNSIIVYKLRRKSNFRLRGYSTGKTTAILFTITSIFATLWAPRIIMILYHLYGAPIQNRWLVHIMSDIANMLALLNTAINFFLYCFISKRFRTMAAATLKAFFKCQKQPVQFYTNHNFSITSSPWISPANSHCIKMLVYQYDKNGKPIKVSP
Test: Inhibition rate of the amount of IP1 in GPR139-expressed CHO cells (inverse agonist assay, Test Example 2)
Format: cell-based
Details: CHO, relative value, inhibition rate of Example Compound 2 in Test Example 1 defined as 100%
Method: The measurement of IP1 was made using an IP-ONE HTFR assay kit (cis-bio) and CHO-TREx (Life Technologies) cells stably transfected with GPR139. The CHO-TREx cells expressed human GPR139 with a tetracycline-inducing element. The cells were cultured in a medium containing F12K and 10% tetracycline-free FBS, and the expression of human GPR139 was induced over the course of 17 hours under conditions of 37° C. and 5% CO2 in the presence of 2 μg/mL of doxycycline (Clontech, 631311) in the growth medium on the day before assay. On the day of the test, after the cells were washed with 10 mL of PBS, the cells were detached with TrypLE Express (Life Technologies) and centrifuged at 1,000 rpm to form pellets, and a cell suspension was then prepared using a stimulation buffer (cis-bio, included in the IP-ONE HTRF assay kit).
The compound was diluted with the stimulation buffer, and 4 μL was added to a 384-well white assay plate (Greiner). The cell suspension was added so that there were 2000 cells per well, and the assay plate was left to stand for 40 minutes at 37° C. Equal amounts of IP1-d2 and Ab-Crp solutions (both available from cis-bio, included in the IP-ONE HTRF assay kit) prepared with a lysis buffer (cis-bio, included in the IP-ONE HTRF assay kit) were mixed, and 4 μL was added to the assay plate and left to stand for one hour at room temperature. After the fluorescence strengths of two wavelengths were measured by the HTRF settings of Envision (PerkinElmer), the value of Ratio={(Signal 665 nm)/(Signal 615 nm)}×10000 was calculated.
Measurement of the Inhibition Rate of the Amount of IP1 in GPR139-Expressed CHO Cells (Inverse Agonist Assay)
The activities of the compounds of Examples 1 and 3 to 167 were expressed as relative values in Table 2 by measuring the inhibition rate of the amount of IP1 with the same method as in Test Example 1 and defining the inhibition rate of the amount of IP1 of Example Compound 2 in Test Example 1 as […].

Structure (SMILES)	inhibition at 30 µM [%]
CCn1cc(Cn2c(C)cn(-c3cc(N4CCO[C@H](C)C4)cc(C(F)(F)F)c3F)c2=O)cn1 [Example 25, 3-[(1-ethyl-1H-pyrazol-4-yl)methyl]-1-{2-fluoro-5-[(2R)-2-methylmorpholin-4-yl]-3-(trifluoromethyl)phenyl}-4-methyl-1,3-dihydro-2H-imidazol-2-one]	100
CCn1cc(Cn2ccn(-c3nc(N4CCO[C@H](C)C4)cc(C(F)(F)F)c3F)c2=O)cn1 [Example 26, 1-[(1-ethyl-1H-pyrazol-4-yl)methyl]-3-{3-fluoro-6-[(2R)-2-methylmorpholin-4-yl]-4-(trifluoromethyl)pyridin-2-yl}-1,3-dihydro-2H-imidazol-2-one]	100
CCn1cc(Cn2cnn(-c3cc(N4CCO[C@H](C)C4)cc(C(F)(F)F)c3F)c2=O)cn1 [Example 27, 4-[(1-ethyl-1H-pyrazol-4-yl)methyl]-2-{2-fluoro-5-[(2R)-2-methylmorpholin-4-yl]-3-(trifluoromethyl)phenyl}-2,4-dihydro-3H-1,2,4-triazol-3-one]	99
CCn1cc(Cn2cc(C)n(-c3cc(N4CCO[C@@H](C)C4)cc(C(F)(F)F)c3)c2=O)cn1 [Example 28, 1-[(1-ethyl-1H-pyrazol-4-yl)methyl]-4-methyl-3-{3-[(2S)-2-methylmorpholin-4-yl]-5-(trifluoromethyl)phenyl}-1,3-dihydro-2H-imidazol-2-one]	99
CCn1cc(Cn2cc(C)n(-c3cc(N4CCOC(C)(C)C4)cc(C(F)(F)F)c3)c2=O)cn1 [Example 29, 3-[3-(2,2-dimethylmorpholin-4-yl)-5-(trifluoromethyl)phenyl]-1-[(1-ethyl-1H-pyrazol-4-yl)methyl]-4-methyl-1,3-dihydro-2H-imidazol-2-one]	99
CCn1cc(Cn2c(C)cn(-c3nc(N4CCO[C@H](C)C4)cc(C(F)(F)F)c3F)c2=O)cn1 [Example 30]	99
CCn1cc(Cn2ccn(-c3cc(N4C[C@@H](C)O[C@@H](C)C4)cc(C(F)(F)F)c3F)c2=O)cn1 [Example 31, 1-{5-[(2R,6S)-2,6-dimethylmorpholin-4-yl]-2-fluoro-3-(trifluoromethyl)phenyl}-3-[(1-ethyl-1H-pyrazol-4-yl)methyl]-1,3-dihydro-2H-imidazol-2-one]	100
CCn1cc(Cn2ccn(-c3cc(N4CCO[C@H](C)C4)cc(Cl)c3F)c2=O)cn1 [Example 32, 1-{3-chloro-2-fluoro-5-[(2R)-2-methylmorpholin-4-yl]phenyl}-3-[(1-ethyl-1H-pyrazol-4-yl)methyl]-1,3-dihydro-2H-imidazol-2-one]	98
CCn1cc(Cn2cc(C)n(-c3cc(C4CCC(F)(F)CC4)cc(C(F)(F)F)c3)c2=O)cn1 [Example 33, 3-[3-(4,4-difluorocyclohexyl)-5-(trifluoromethyl)phenyl]-1-[(1-ethyl-1H-pyrazol-4-yl)methyl]-4-methyl-1,3-dihydro-2H-imidazol-2-one]	100
CCn1cc(Cn2ccn(-c3cc(N4C[C@@H](C)O[C@H](C)C4)cc(C(F)(F)F)c3F)c2=O)cn1 [Example 34, 1-{5-[(2R,6R)-2,6-dimethylmorpholin-4-yl]-2-fluoro-3-(trifluoromethyl)phenyl}-3-[(1-ethyl-1H-pyrazol-4-yl)methyl]-1,3-dihydro-2H-imidazol-2-one]	100
CC(C)n1cc(Cn2ccn(-c3cc(N4CCO[C@H](C)C4)cc(C(F)(F)F)c3F)c2=O)cn1 [Example 35, 1-{2-fluoro-5-[(2R)-2-methylmorpholin-4-yl]-3-(trifluoromethyl)phenyl}-3-{[1-(propan-2-yl)-1H-pyrazol-4-yl]methyl}-1,3-dihydro-2H-imidazol-2-one]	99
CCn1cc(Cn2ccn(-c3cc(N4CCC(F)(F)CC4)cc(C(F)(F)F)c3F)c2=O)cn1 [Example 36, 1-[5-(4,4-difluoropiperidin-1-yl)-2-fluoro-3-(trifluoromethyl)phenyl]-3-[(1-ethyl-1H-pyrazol-4-yl)methyl]-1,3-dihydro-2H-imidazol-2-one]	101
CCn1cc(Cn2ccn(-c3cc(N4CCCC(F)(F)C4)cc(C(F)(F)F)c3F)c2=O)cn1 [Example 37, 1-[5-(3,3-difluoropiperidin-1-yl)-2-fluoro-3-(trifluoromethyl)phenyl]-3-[(1-ethyl-1H-pyrazol-4-yl)methyl]-1,3-dihydro-2H-imidazol-2-one]	99
CCn1cc(Cn2cc(C)n(-c3cc(N(C)C4CCOCC4)cc(C(F)(F)F)c3)c2=O)cn1 [Example 38, 1-[(1-ethyl-1H-pyrazol-4-yl)methyl]-4-methyl-3-{3-[methyl(oxan-4-yl)amino]-5-(trifluoromethyl)phenyl}-1,3-dihydro-2H-imidazol-2-one]	99
CCn1cc(Cn2ccn(-c3cc(N4CCC(F)(F)C4)cc(C(F)(F)F)c3F)c2=O)cn1 [Example 39, 1-[5-(3,3-difluoropyrrolidin-1-yl)-2-fluoro-3-(trifluoromethyl)phenyl]-3-[(1-ethyl-1H-pyrazol-4-yl)methyl]-1,3-dihydro-2H-imidazol-2-one]	99
CCn1cc(Cn2ccn(-c3cc(N4CCOC(F)(F)C4)cc(C(F)(F)F)c3F)c2=O)cn1 [Example 40, 1-[5-(2,2-difluoromorpholin-4-yl)-2-fluoro-3-(trifluoromethyl)phenyl]-3-[(1-ethyl-1H-pyrazol-4-yl)methyl]-1,3-dihydro-2H-imidazol-2-one]	101
CCn1cc(Cn2cc(C)n(-c3cc(N4CCOC(F)(F)C4)cc(C(F)(F)F)c3)c2=O)cn1 [Example 41, 3-[3-(2,2-difluoromorpholin-4-yl)-5-(trifluoromethyl)phenyl]-1-[(1-ethyl-1H-pyrazol-4-yl)methyl]-4-methyl-1,3-dihydro-2H-imidazol-2-one]	101
CCn1cc(Cn2ccn(-c3nc(N4CCO[C@H](C)C4)cc(C(F)(F)F)c3C)c2=O)cn1 [Example 42, 1-[(1-ethyl-1H-pyrazol-4-yl)methyl]-3-{3-methyl-6-[(2R)-2-methylmorpholin-4-yl]-4-(trifluoromethyl)pyridin-2-yl}-1,3-dihydro-2H-imidazol-2-one]	99
CCn1cc(Cn2ccn(-c3cc(N4CCOC5(CC5)C4)cc(C(F)(F)F)c3F)c2=O)cn1 [Example 43, 1-[(1-ethyl-1H-pyrazol-4-yl)methyl]-3-[2-fluoro-5-(4-oxa-7-azaspiro[2.5]octan-7-yl)-3-(trifluoromethyl)phenyl]-1,3-dihydro-2H-imidazol-2-one]	100
CCn1cc(Cn2ccn(-c3cc(N4CCO[C@H](C)C4)cc(C4CC4)c3F)c2=O)cn1 [Example 44, 1-{3-cyclopropyl-2-fluoro-5-[(2R)-2-methylmorpholin-4-yl]phenyl}-3-[(1-ethyl-1H-pyrazol-4-yl)methyl]-1,3-dihydro-2H-imidazol-2-one]	100
CCn1cc(Cn2c(C)cn(-c3nc(N4CCO[C@H](C)C4)cc(C(F)(F)F)c3C)c2=O)cn1 [Example 45, 3-[(1-ethyl-1H-pyrazol-4-yl)methyl]-4-methyl-1-{3-methyl-6-[(2R)-2-methylmorpholin-4-yl]-4-(trifluoromethyl)pyridin-2-yl}-1,3-dihydro-2H-imidazol-2-one]	101
CCn1cc(Cn2c(C)c(C)n(-c3cc(OCC(F)F)cc(N4CCO[C@H](C)C4)c3)c2=O)cn1 [Example 46, 1-{3-(2,2-difluoroethoxy)-5-[(2R)-2-methylmorpholin-4-yl]phenyl}-3-[(1-ethyl-1H-pyrazol-4-yl)methyl]-4,5-dimethyl-1,3-dihydro-2H-imidazol-2-one]	100
CCn1cc(Cn2c(C)c(C)n(-c3cc(OCC(F)(F)F)cc(N4CCO[C@H](C)C4)c3)c2=O)cn1 [Example 47, 1-[(1-ethyl-1H-pyrazol-4-yl)methyl]-4,5-dimethyl-3-{3-[(2R)-2-methylmorpholin-4-yl]-5-(2,2,2-trifluoroethoxy)phenyl}-1,3-dihydro-2H-imidazol-2-one]	101
CCn1cc(Cn2cc(C)n(-c3cc(OCOC)cc(C(F)(F)F)c3)c2=O)cn1 [Example 48, 1-[(1-ethyl-1H-pyrazol-4-yl)methyl]-3-[3-(methoxymethoxy)-5-(trifluoromethyl)phenyl]-4-methyl-1,3-dihydro-2H-imidazol-2-one]	101
